Source: patent US20230278972A1, “SUBSTITUTED HALOALKYL SULFONANILIDE HERBICIDES” (FMC Corporation, priority 2020, published 2023)

How the values were obtained:
Type in all cases: in vivo
[1] = test system: barnyardgrass (Echinochloa crus-galli); experiment: Test A preemergence, barnyardgrass; conditions: Preemergence; for Barnyardgrass plant response rating: 125 g ai/ha, visual injury on 0 to 100 scale (0 no effect, 100 complete control), approximately 10 days; for Plant response rating, Barnyardgrass: 500 g ai/ha, 0 to 100 scale (0 no effect, 100 complete control)
How it was run: (§1)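 Greenhouse pot test in a loam–sand blend; compounds delivered in a non-phytotoxic solvent carrying a surfactant, applied either as a directed spray to soil at seeding or over seedlings 2 to 10 cm high with one to two leaves.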

kochia (Bassia scoparia) [2] = experiment: Test A preemergence, kochia; conditions: Preemergence; for Kochia plant response rating: 125 g ai/ha, visual injury on 0 to 100 scale (0 no effect, 100 complete control), approximately 10 days; for Plant response rating, Kochia: 500 g ai/ha, 0 to 100 scale (0 no effect, 100 complete control)
How it was run: as §1

[3] = test system: ragweed (common ragweed, Ambrosia artemisiifolia); experiment: Test A preemergence, ragweed; conditions: Preemergence; for Ragweed plant response rating: 125 g ai/ha, visual injury on 0 to 100 scale (0 no effect, 100 complete control), approximately 10 days; for Plant response rating, Ragweed: 500 g ai/ha, 0 to 100 scale (0 no effect, 100 complete control)
How it was run: as §1

[4] = test system: Ryegrass, Italian (Italian ryegrass, Lolium multiflorum); experiment: Test A preemergence, Ryegrass, Italian; conditions: Preemergence; for Ryegrass, Italian plant response rating: 125 g ai/ha, visual injury on 0 to 100 scale (0 no effect, 100 complete control), approximately 10 days; for Plant response rating, Ryegrass, Italian: 500 g ai/ha, 0 to 100 scale (0 no effect, 100 complete control)
How it was run: as §1

[5] = test system: Foxtail, Giant (giant foxtail, Setaria faberi); experiment: Test A preemergence, Foxtail, Giant; conditions: Preemergence; for Foxtail, Giant plant response rating: 125 g ai/ha, visual injury on 0 to 100 scale (0 no effect, 100 complete control), approximately 10 days; for Plant response rating, Foxtail, Giant: 500 g ai/ha, 0 to 100 scale (0 no effect, 100 complete control)
How it was run: as §1

[6] = test system: pigweed (Amaranthus retroflexus); experiment: Test A preemergence, pigweed; conditions: for Pigweed plant response rating: 125 g ai/ha, visual injury on 0 to 100 scale (0 no effect, 100 complete control), approximately 10 days; for Plant response rating, Pigweed: 500 g ai/ha, 0 to 100 scale (0 no effect, 100 complete control)
How it was run: (§2)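 Formulated with a surfactant in a non-phytotoxic solvent, compounds are applied to loam–sand pots, either to bare soil immediately after seeding (preemergence) or to seedlings of 2 to 10 cm bearing one to two leaves (postemergence).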

[7] = test system: barnyardgrass (Echinochloa crus-galli); experiment: Test A postemergence, barnyardgrass; conditions: Postemergence, 0 to 100 scale (0 no effect, 100 complete control)
How it was run: as §2

kochia (Bassia scoparia) [8] = experiment: Test A postemergence, kochia; conditions: Postemergence, 0 to 100 scale (0 no effect, 100 complete control)
How it was run: as §1

[9] = test system: ragweed (common ragweed, Ambrosia artemisiifolia); experiment: Test A postemergence, ragweed; conditions: Postemergence, 0 to 100 scale (0 no effect, 100 complete control)
How it was run: as §1

[10] = test system: Ryegrass, Italian (Italian ryegrass, Lolium multiflorum); experiment: Test A postemergence, Ryegrass, Italian; conditions: Postemergence, 0 to 100 scale (0 no effect, 100 complete control)
How it was run: as §1

[11] = test system: Foxtail, Giant (giant foxtail, Setaria faberi); experiment: Test A postemergence, Foxtail, Giant; conditions: Postemergence, 0 to 100 scale (0 no effect, 100 complete control)
How it was run: as §1

[12] = test system: pigweed (Amaranthus retroflexus); experiment: Test A postemergence, pigweed; conditions: Postemergence, 0 to 100 scale (0 no effect, 100 complete control)
How it was run: as §1

[13] = test system: wheat (Triticum aestivum); experiment: Test A postemergence, wheat; conditions: Postemergence, 0 to 100 scale (0 no effect, 100 complete control)
How it was run: as §2

corn (Zea mays) = experiment: Test A postemergence, corn; conditions: Postemergence, 0 to 100 scale (0 no effect, 100 complete control)
How it was run: as §1

[14] = test system: blackgrass (Alopecurus myosuroides); experiment: Test A postemergence, blackgrass; conditions: Postemergence, 0 to 100 scale (0 no effect, 100 complete control)
How it was run: as §1

[15] = test system: galium (catchweed bedstraw, Galium aparine); experiment: Test A postemergence, galium; conditions: Postemergence, 0 to 100 scale (0 no effect, 100 complete control)
How it was run: as §2

[16] = 125 g ai/ha, visual injury approx. 10 days
[17] = 500 g ai/ha, visual injury vs untreated controls after approx. 10 days
[18] = 500 g ai/ha, visual injury, approx. 10 days

Row | Compound | Barnyardgrass plant response rating [1] | Plant response rating, Barnyardgrass [1] | Kochia plant response rating (kochia (Bassia scoparia) [2]) | Plant response rating, Kochia (kochia (Bassia scoparia) [2]) | Ragweed plant response rating [3] | Plant response rating, Ragweed [3] | Ryegrass, Italian plant response rating [4] | Plant response rating, Ryegrass, Italian [4] | Foxtail, Giant plant response rating [5] | Plant response rating, Foxtail, Giant [5] | Pigweed plant response rating [6] | Plant response rating, Pigweed [6] | Plant response rating, Barnyardgrass [7, 16] | Plant response rating, Kochia (kochia (Bassia scoparia) [8]; [16]) | Plant response rating, Ragweed [9, 16] | Plant response rating, Ryegrass, Italian [10, 16] | Plant response rating, Foxtail, Giant [11, 16] | Plant response rating, Pigweed [12, 16] | Plant response rating, Wheat [13, 16] | Plant response rating, Corn (corn (Zea mays); [16]) | other results
1 | CCn1nc(Cl)cc(-c2cc(NS(=O)(=O)C(F)(F)F)c(C)cc2C)c1=O [Compound 51] | 100 | 100 | 80 | 90 | 60 | 90 | 90 | 100 | 100 | 100 | 80 | 90 | 30 | 10 | 50 | 70 | 30 | 60 | 50 | 0 | Barnyardgrass plant response rating [7, 17]: 80; Kochia plant response rating (kochia (Bassia scoparia) [8]; [17]): 60; Ragweed plant response rating [9, 17]: 80; Ryegrass, Italian plant response rating [10, 17]: 80; Foxtail, Giant plant response rating [11, 17]: 80; Pigweed plant response rating [12, 17]: 80; Wheat plant response rating [13, 17]: 60; Corn plant response rating (corn (Zea mays); [17]): 20; Plant response rating, Blackgrass [14, 16]: 20; Blackgrass plant response rating [14, 17]: 70; Plant response rating, Galium [15, 16]: 40; Galium plant response rating [15, 17]: 60
2 | COc1cc(-c2cc(N(S(=O)(=O)C(F)(F)F)S(=O)(=O)C(F)(F)F)c(C)cc2C)c(=O)n(C)n1 [Compound 35] | 70 | 90 | 0 | 20 | 20 | 80 | 40 | 50 | 60 | 90 | 50 | 80 | 0 | 0 | 0 | 0 | 0 | 30 | 0 | 0 | Plant response rating, Barnyardgrass [7, 18]: 80; Plant response rating, Kochia (kochia (Bassia scoparia) [8]; [18]): 10; Plant response rating, Ragweed [9, 18]: 40; Plant response rating, Ryegrass, Italian [10, 18]: 40; Plant response rating, Foxtail, Giant [11, 18]: 10; Plant response rating, Pigweed [12, 18]: 60; Plant response rating, Wheat [13, 18]: 40; Plant response rating, Corn (corn (Zea mays); [18]): 0; Plant response rating, Blackgrass [14, 16]: 20; Plant response rating, Blackgrass [14, 18]: 30; Plant response rating, Galium [15, 16]: 60; Plant response rating, Galium [15, 18]: 70
